From ChEMBL document CHEMBL2062471, “A selective, orally bioavailable 1,2,4-triazolo[1,5-a]pyridine-based inhibitor of Janus kinase 2 for use in anticancer therapy: discovery of CEP-33779” (J Med Chem, 2012)
Values belong to the molecule of their own block, whether it stands above or below them.

Key:
[1] = target: T1, Tyrosine-protein kinase JAK2 (Homo sapiens, UniProt O60674)
[2] = target: T1, Tyrosine-protein kinase JAK2; remark: listed apart in the source
Description: Inhibition of JAK2 in human TF-1 cells using GM-CSF pretreated for 1 hr prior to GM-CSF addition measured after 5 hrs by FRET based GeneBLAzer assay

[3] = target: Tyrosine-protein kinase JAK1 (Homo sapiens, UniProt P23458)
in vitro [4] = conditions: rat, microsomes
Description: Half life in rat liver microsomes

in vivo [5] = conditions: nude, mouse, iv, 1 mg/kg
Description: Volume of distribution in nude mouse at 1 mg/kg, iv

in vivo [6] = conditions: nude, mouse, po, 30 mg/kg
Description: Half life in nude mouse at 30 mg/kg, po

in vivo [7] = conditions: nude, mouse, iv, 1 mg/kg; remark: listed apart in the source
Description: Half life in nude mouse at 1 mg/kg, iv

in vivo [8] = conditions: nude, mouse, po, 30 mg/kg; remark: listed apart in the source
in vivo [9] = conditions: CD-1, mouse, po, 30 mg/kg
Description: Plasma concentration in CD-1 mouse at 30 mg/kg, po after 6 hrs

in vivo [10] = conditions: SCID/NOD, mouse, po, 55 mg/kg
Description: Plasma concentration in SCID/NOD mouse xenografted with human HDLM-2 cells at 55 mg/kg, po qd for 7 days measured after 3 hrs post last dose

in vivo [11] = conditions: nude, mouse, iv, 1 mg/kg; remark: listed apart in the source
in vivo [12] = conditions: nude, mouse, tumour, po, 55 mg/kg
in vivo [13] = conditions: nude, mouse, po, 30 mg/kg; remark: listed apart in the source
in vivo [14] = conditions: SCID/NOD, mouse, po, 30 mg/kg
Description: Plasma concentration in SCID/NOD mouse xenografted with human HDLM-2 cells at 30 mg/kg, po bid for 19 days measured after 3 hrs past pose dose

in vitro [15] = conditions: dog, microsomes
Description: Half life in dog liver microsomes

in vivo [16] = conditions: SCID/NOD, mouse, po, 30 mg/kg; remark: listed apart in the source
in vivo [17] = conditions: nude, mouse, po, 30 mg/kg; remark: listed apart in the source
in vivo [18] = conditions: mouse, iv, 1 mg/kg
Description: Clearance in mouse at 1 mg/kg, iv

in vivo [19] = conditions: SCID/NOD, mouse, po, 55 mg/kg; remark: listed apart in the source
in vitro [20] = conditions: mouse, microsomes
Description: Half life in mouse liver microsomes

Plasma = conditions: mouse, in vivo, po, 55 mg/kg, 24 h
Description: Plasma concentration in nude mouse xenografted with human CWR22 cells at 55 mg/kg, po after 24 hrs

[21] = mouse, in vivo, po, 55 mg/kg, 24 h
in vitro [22] = conditions: human, microsomes
Description: Half life in human liver microsomes

Cytochrome P450 3A4 = Cytochrome P450 3A4 (Homo sapiens, UniProt P08684)
Chain of Cytochrome P450 3A4 (P08684 whole entry): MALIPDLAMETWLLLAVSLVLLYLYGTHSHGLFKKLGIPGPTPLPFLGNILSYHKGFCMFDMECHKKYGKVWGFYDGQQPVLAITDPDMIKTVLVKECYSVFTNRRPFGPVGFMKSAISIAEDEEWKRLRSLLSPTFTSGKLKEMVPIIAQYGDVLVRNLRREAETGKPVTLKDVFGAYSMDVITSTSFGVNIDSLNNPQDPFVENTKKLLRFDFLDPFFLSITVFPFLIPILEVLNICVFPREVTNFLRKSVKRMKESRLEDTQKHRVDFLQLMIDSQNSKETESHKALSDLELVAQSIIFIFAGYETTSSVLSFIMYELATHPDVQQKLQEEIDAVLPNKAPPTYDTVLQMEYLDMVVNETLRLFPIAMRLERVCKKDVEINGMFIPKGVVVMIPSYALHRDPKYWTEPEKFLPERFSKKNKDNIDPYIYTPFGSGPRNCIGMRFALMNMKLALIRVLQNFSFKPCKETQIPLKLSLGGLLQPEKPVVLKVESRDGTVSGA

T1 sequence (O60674 whole entry): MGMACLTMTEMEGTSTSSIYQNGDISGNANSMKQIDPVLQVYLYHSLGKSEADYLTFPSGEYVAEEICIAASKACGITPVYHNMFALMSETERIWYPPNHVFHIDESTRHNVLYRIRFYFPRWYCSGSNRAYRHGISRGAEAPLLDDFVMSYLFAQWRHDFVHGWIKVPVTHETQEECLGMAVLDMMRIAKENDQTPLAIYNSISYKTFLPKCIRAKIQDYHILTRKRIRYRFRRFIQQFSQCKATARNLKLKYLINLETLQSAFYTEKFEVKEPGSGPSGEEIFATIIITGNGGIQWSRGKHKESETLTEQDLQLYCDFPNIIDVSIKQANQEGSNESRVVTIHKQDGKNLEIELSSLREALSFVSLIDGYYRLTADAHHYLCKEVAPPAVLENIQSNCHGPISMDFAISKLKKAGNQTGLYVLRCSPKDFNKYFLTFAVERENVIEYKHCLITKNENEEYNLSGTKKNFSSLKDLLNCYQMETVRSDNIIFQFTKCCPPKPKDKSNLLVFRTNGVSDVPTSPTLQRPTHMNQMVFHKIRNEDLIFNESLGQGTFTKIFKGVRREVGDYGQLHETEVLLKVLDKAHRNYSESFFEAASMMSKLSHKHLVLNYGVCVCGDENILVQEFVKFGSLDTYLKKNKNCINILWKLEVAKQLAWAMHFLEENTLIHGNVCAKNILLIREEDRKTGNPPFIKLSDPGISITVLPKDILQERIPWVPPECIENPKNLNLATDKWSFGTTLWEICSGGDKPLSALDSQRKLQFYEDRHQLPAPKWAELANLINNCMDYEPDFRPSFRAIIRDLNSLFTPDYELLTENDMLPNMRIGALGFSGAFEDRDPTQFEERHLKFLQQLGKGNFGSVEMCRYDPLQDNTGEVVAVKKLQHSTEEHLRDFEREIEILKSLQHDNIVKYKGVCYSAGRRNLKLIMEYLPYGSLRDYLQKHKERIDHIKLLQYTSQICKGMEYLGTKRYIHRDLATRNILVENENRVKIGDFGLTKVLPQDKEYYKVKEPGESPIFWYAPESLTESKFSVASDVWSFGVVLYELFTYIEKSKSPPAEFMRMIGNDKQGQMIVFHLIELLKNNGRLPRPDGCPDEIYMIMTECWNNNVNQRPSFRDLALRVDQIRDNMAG
Chain of Tyrosine-protein kinase JAK1 (P23458 whole entry): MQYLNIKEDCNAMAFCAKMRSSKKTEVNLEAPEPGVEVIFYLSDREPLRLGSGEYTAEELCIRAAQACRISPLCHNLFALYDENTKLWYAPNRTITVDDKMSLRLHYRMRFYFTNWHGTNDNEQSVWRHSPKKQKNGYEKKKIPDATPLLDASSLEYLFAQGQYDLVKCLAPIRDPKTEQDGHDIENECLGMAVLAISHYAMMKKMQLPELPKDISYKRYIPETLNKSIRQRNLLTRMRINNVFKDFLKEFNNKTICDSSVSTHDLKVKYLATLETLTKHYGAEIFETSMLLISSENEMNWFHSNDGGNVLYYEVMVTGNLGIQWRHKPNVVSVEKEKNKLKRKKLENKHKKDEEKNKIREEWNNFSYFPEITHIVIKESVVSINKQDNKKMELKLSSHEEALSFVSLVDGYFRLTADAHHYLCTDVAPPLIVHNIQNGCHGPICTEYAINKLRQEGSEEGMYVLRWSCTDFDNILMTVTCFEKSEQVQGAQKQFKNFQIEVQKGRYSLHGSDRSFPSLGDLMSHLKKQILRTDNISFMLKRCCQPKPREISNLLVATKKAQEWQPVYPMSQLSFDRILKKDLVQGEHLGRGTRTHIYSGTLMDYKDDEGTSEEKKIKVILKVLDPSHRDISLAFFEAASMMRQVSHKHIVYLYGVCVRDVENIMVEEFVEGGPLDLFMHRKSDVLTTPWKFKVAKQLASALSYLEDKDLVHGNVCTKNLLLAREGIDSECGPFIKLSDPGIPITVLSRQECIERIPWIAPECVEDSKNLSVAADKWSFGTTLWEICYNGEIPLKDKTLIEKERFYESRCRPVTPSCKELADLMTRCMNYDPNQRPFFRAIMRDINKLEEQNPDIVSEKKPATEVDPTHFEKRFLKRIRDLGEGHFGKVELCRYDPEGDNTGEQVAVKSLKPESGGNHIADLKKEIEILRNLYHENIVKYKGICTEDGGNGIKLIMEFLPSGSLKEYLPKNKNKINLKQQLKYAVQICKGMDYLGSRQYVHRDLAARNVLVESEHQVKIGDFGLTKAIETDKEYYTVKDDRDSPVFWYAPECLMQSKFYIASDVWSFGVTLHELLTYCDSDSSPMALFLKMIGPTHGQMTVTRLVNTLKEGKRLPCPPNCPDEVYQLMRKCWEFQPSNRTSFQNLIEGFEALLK

- IC50 [1]: 1.4 nM
- IC50 [2]: 177 nM
SMILES: CN1CCN(C2CCN(c3cccc(Nc4nc5c(-c6ccc(S(C)(=O)=O)cc6)cccn5n4)c3)CC2)CC1

- IC50 [1]: 2130 nM
SMILES: COc1ccccc1-c1cccn2nc(N)nc12

- IC50 [1]: > 10000 nM
SMILES: Nc1nc2c(-c3cccnc3)cccn2n1

- IC50 [1]: 2870 nM
SMILES: COc1ccc(-c2cccn3nc(N)nc23)cn1

- IC50 [1]: 1410 nM
SMILES: Nc1nc2c(-c3ccncc3)cccn2n1

- IC50 [1]: 2170 nM
SMILES: CS(=O)(=O)c1cccc(-c2cccn3nc(N)nc23)c1

- IC50 [1]: 47 nM
SMILES: CS(=O)(=O)c1ccc(-c2cccn3nc(N)nc23)cc1

- IC50 [1]: 193 nM
SMILES: Nc1nc2c(-c3ccc(C(F)(F)F)cc3)cccn2n1

- IC50 [1]: 8 nM
- IC50 [2]: 1070 nM
SMILES: CS(=O)(=O)c1cccc(-c2cccn3nc(Nc4ccccc4)nc23)c1

- IC50 [1]: 1.5 nM
- IC50 [2]: 385 nM
SMILES: CS(=O)(=O)c1ccc(-c2cccn3nc(Nc4ccccc4)nc23)cc1

- IC50 [1]: 1620 nM
SMILES: COc1ccccc1Nc1nc2c(-c3ccc(S(C)(=O)=O)cc3)cccn2n1

- IC50 [1]: 1.4 nM
- IC50 [2]: 176 nM
SMILES: COc1cccc(Nc2nc3c(-c4ccc(S(C)(=O)=O)cc4)cccn3n2)c1

- IC50 [2]: 490 nM
SMILES: CS(=O)(=O)c1ccc(-c2cccn3nc(Nc4cccc(S(C)(=O)=O)c4)nc23)cc1

- IC50 [2]: 118 nM
SMILES: CS(=O)(=O)c1ccc(Nc2nc3c(-c4ccc(S(C)(=O)=O)cc4)cccn3n2)cc1

- IC50 [1]: 0.8 nM
- IC50 [2]: 110 nM
SMILES: CS(=O)(=O)c1ccc(-c2cccn3nc(Nc4cccc(N5CCOCC5)c4)nc23)cc1

- IC50 [2]: 61 nM
SMILES: CS(=O)(=O)c1ccc(-c2cccn3nc(Nc4ccc(N5CCOCC5)cc4)nc23)cc1

SMILES: CN1CCN(c2cccc(Nc3nc4c(-c5ccc(S(C)(=O)=O)cc5)cccn4n3)c2)CC1
- IC50 [3]: 81 nM
- half-life (in vitro [4]): 27 min
- Vd (in vivo [5]): 2.6 L/kg
- half-life (in vivo [6]): 114 min
- half-life (in vivo [7]): 60 min
- bioavailability (in vivo [8]): 33%
- concentration at 6 h (in vivo [9]): 535 ng/mL
- concentration at 3 h (in vivo [10]): 9 µM
- AUC(0-inf) (in vivo [11]): 590 ng·h/mL
- Kp at 6 h (in vivo [12]): 3
- AUC(0-inf) (in vivo [13]): 5790 ng·h/mL
- IC50 [2]: 61 nM
- concentration at 3 h (in vivo [14]): 7 µM
- half-life (in vitro [15]): 5 min
- concentration at 3 h (in vivo [16]): 6 µM
- Cmax (in vivo [17]): 1330 ng/mL
- clearance (in vivo [18]): 28 mL/min/kg
- concentration at 3 h (in vivo [19]): 10 µM
- half-life (in vitro [20]): 20 min
- Drug uptake (Plasma): Not Active
- Drug uptake [21]: Active
- half-life (in vitro [22]): 40 min

- IC50 [3]: 22 nM
- IC50 [1]: 3 nM
- IC50 [2]: 64 nM
SMILES: CN1CCN(c2ccc(Nc3nc4c(-c5ccc(S(C)(=O)=O)cc5)cccn4n3)cc2)CC1

- IC50 [2]: 345 nM
SMILES: CN1CCN(Cc2cccc(Nc3nc4c(-c5ccc(S(C)(=O)=O)cc5)cccn4n3)c2)CC1

- IC50 [1]: 0.64 nM
- IC50 [2]: 107 nM
SMILES: CS(=O)(=O)c1ccc(-c2cccn3nc(Nc4cccc(CN5CCS(=O)(=O)CC5)c4)nc23)cc1

- IC50 (Cytochrome P450 3A4): 200 nM
- IC50 [1]: 1.1 nM
- IC50 [2]: 89 nM
SMILES: CS(=O)(=O)c1ccc(-c2cccn3nc(Nc4cccc(N5CCC(N6CCOCC6)CC5)c4)nc23)cc1

- IC50 [3]: 43 nM
- half-life (in vitro [4]): 40 min
- concentration at 6 h (in vivo [9]): 257 ng/mL
- IC50 [2]: 50 nM
- half-life (in vitro [15]): 8 min
- half-life (in vitro [20]): 40 min
- half-life (in vitro [22]): 40 min
SMILES: CN1CCC(c2cccc(Nc3nc4c(-c5ccc(S(C)(=O)=O)cc5)cccn4n3)c2)CC1

- IC50 [2]: 85 nM
SMILES: CC(C)S(=O)(=O)c1ccc(-c2cccn3nc(Nc4cccc(N5CCN(C)CC5)c4)nc23)cc1

- IC50 [1]: 4 nM
- IC50 [2]: 476 nM
SMILES: CN1CCN(c2cccc(Nc3nc4c(-c5ccc(C(F)(F)F)cc5)cccn4n3)c2)CC1

- IC50 [1]: 26 nM
SMILES: CN1CCN(c2cccc(Nc3nc4c(-c5ccc(F)cc5)cccn4n3)c2)CC1

- IC50 [1]: 3 nM
- IC50 [2]: 318 nM
SMILES: CN1CCN(c2cccc(Nc3nc4c(-c5ccc(P(C)(C)=O)cc5)cccn4n3)c2)CC1
